# From patent US20110077402A1, “ADMINISTRATION OF DIPEPTIDYL PEPTIDASE INHIBITORS” (priority 2007, published 2011)
# Tested on: plasma glucose
# Assay: Effect of co-administration with pioglitazone on plasma glucose in db/db mice
# Format: in vivo
# Conditions: male db/db mice, 21 days in powder chow (0.03% succinate salt of Compound I and/or 0.0075% pioglitazone hydrochloride), feeding condition, average (n=7) ± standard deviation; control 472.9 ± 74.6
# Excerpt: Male db/db (BKS.Cg-+Lepr^db/+Lepr^db) mice (6 weeks of age, CLEA Japan (Tokyo, Japan)) were divided into 4 groups (n=7 in each group) comprising Group A to Group D. Group A had free access to CE-2 powder chow (CLEA Japan) for 21 days. […] During 21 days of administration of the powder chow, there were not significant differences in the administration amount of the powder chow in the above 4 groups. After 21 days of administration of the powder chow, blood samples were taken from the orbital veins of the mice by capillary pipette under feeding condition, and plasma glucose levels were enzymatically measured by using Autoanalyzer 7080 (Hitachi, Japan). The values in the table means average (n=7)±standard deviation.
smiles,measurement,value
"Cn1c(=O)cc(N2CCC[C@@H](N)C2)n(Cc2cc(F)ccc2C#N)c1=O [Compound I, 2-[6-(3-Amino-piperidin-1-yl)-3-methyl-2,4-dioxo-3,4-dihydro-2H-pyrimidin-1-ylmethyl]-4-fluoro-benzonitrile]",Plasma Glucose,410.3 ± 47.9 mg/dL
"CCc1ccc(CCOc2ccc(CC3SC(=O)NC3=O)cc2)nc1 (centres unmarked) [Pioglitazone, 5-{[4-(2-(5-ethyl-2-pyridyl)ethoxy)phenyl]-methyl}-thiazolidine-2,4-dione]",Plasma Glucose,394.4 ± 47.9 mg/dL
